Experimental data as given in paper PMC10653881, “VirB, a key transcriptional regulator of Shigella virulence, requires a CTP ligand for its regulatory activities” (mBio, 2023).

Target: T1, VirB (VirB-His6) (Shigella flexneri, UniProt P0A247)
T1 construct: VirB with His6 tag, purified by Monserate Biotechnology Group by an earlier protocol; ParB superfamily protein encoded on the large virulence plasmid pINV; homodimer on DNA
Assay: isothermal titration calorimetry
Assay type: binding
Details: 25 °C, pH 7.6, 25 mM HEPES, 100 mM NaCl, one set of sites

T1 sequence (P0A247 whole entry): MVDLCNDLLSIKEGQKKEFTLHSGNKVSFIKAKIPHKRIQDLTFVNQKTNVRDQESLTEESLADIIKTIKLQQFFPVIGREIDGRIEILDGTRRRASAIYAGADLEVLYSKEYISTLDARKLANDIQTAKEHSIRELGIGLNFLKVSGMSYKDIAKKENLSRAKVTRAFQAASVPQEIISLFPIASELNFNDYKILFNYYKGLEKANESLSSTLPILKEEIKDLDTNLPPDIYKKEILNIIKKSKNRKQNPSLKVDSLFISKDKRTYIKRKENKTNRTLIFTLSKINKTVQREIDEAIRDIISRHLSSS

SMILES | Kd (5 mM MgCl2, 45 µM VirB-His6, no DNA) | Kd (5 mM MgCl2, 90 µM VirB-His6 (not fully saturated after 13 injections), no DNA)
Nc1ccn([C@@H]2O[C@H](COP(=O)(O)OP(=O)(O)OP(=O)(O)O)[C@@H](O)[C@H]2O)c(=O)n1 [CTP] | 9.3 ± 0.4 µM | 
Nc1ccn([C@@H]2O[C@H](COP(=O)(O)OP(=O)(O)OP(O)(O)=S)[C@@H](O)[C@H]2O)c(=O)n1 [CTPγS] |  | 14.3 ± 0.5 µM
